{
  "source": "paper PMC6378217",
  "about": "“The lysyl oxidase like 2/3 enzymatic inhibitor, PXS‐5153A, reduces crosslinks and ameliorates fibrosis” (Journal of Cellular and Molecular Medicine, 2018)",
  "key": {"Recombinant mouse LOXL2": {"target": "T1, Recombinant mouse LOXL2 (Mus musculus, UniProt P58022)", "T1 construct": "purchased R&D Systems", "T1 sequence (P58022 26-776)": "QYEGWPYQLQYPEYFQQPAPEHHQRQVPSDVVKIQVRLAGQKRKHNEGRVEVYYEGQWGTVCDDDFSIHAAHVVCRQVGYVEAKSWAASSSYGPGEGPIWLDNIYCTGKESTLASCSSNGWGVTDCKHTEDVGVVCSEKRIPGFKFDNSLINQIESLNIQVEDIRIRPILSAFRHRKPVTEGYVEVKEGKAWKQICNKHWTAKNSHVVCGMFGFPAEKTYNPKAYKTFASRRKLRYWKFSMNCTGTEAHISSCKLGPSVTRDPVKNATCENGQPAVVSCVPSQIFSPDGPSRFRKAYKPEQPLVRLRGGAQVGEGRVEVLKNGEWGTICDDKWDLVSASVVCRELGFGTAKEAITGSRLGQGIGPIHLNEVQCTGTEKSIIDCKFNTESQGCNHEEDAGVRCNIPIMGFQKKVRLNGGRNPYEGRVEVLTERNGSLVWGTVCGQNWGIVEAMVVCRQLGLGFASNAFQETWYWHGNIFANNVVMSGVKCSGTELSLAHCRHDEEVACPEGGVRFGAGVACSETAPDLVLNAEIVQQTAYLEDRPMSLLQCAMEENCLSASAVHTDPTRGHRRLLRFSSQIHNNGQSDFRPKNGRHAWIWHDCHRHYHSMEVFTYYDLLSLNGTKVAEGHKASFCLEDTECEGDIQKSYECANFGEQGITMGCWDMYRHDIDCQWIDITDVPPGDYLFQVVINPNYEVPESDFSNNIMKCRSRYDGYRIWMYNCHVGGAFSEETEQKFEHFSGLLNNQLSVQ", "experiment": "Amplex-Red fluorometric enzymatic activity assay, recombinant mouse LOXL2", "format": "biochemical", "conditions": "30 minute pre-incubation; average of at least three experiments", "protocol": "(§1) The measurement of the enzymatic activity of all lysyl oxidase family members was based on the detection of hydrogen peroxide with an Amplex‐Red oxidation assay, as described in Zhou et al26 Recombinant human semicarbazide sensitive amine oxidase (SSAO/VAP1), diamine oxidase (DAO) and monoamine oxidases A and B (MAO‐A and MAO‐B) assays were performed as previously described.27 For detailed enzymatic procedures, see supporting information.\n(§2) The measurement of the enzymatic activity of all lysyl oxidase family members was based on the detection of hydrogen peroxide with an Amplex-Red oxidation assay, as described in Zhou et al.[1]; miniaturised in 384 well format, with the appropriate combination of substrate and assay buffer for each individual enzyme. After a 30 minute pre-incubation of the enzyme at 37 °C with the test compound (or with different incubation times for the time-dependency assay), one volume of reaction mixture containing 120 μM Amplex Red (AR) (Life Technologies), 1.5 U/mL horseradish peroxidase (HRP) (Sigma-Aldrich) and the specific substrate was added to each sample. The relative fluorescence units (RFU) were then measured every 2.5 minutes for 30 minutes at 37°C, excitation 565 nm and emission 590, on a BMG Clariostar Microplate Reader. […]"}, "Native human LOXL2": {"target": "T2, Native human LOXL2 (Homo sapiens, UniProt Q9Y4K0)", "T2 construct": "separating LOXL2 in the portion at higher molecular weight; host or cells: IMR90 conditioned medium", "T2 sequence (Q9Y4K0 26-774)": "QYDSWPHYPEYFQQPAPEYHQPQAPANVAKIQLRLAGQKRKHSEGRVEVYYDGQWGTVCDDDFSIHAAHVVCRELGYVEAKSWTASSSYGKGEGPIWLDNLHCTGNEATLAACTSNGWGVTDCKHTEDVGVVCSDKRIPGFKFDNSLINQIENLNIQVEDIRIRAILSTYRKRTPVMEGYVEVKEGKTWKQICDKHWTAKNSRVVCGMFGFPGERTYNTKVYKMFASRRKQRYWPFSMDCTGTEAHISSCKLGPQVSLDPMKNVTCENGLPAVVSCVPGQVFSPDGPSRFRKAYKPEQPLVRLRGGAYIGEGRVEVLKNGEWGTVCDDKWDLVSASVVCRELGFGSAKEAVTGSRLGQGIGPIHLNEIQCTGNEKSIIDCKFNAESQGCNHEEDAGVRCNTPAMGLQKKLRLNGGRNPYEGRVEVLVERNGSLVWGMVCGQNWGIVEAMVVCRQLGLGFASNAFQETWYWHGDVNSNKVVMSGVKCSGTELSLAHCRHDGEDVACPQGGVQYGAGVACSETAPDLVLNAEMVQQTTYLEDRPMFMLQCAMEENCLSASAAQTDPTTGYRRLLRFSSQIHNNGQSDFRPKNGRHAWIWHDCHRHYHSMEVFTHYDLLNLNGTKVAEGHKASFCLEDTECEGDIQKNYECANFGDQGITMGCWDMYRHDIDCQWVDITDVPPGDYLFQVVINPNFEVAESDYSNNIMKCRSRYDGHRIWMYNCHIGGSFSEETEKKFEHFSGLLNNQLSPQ", "experiment": "Amplex-Red fluorometric enzymatic activity assay, native human LOXL2 (IMR90 conditioned medium)", "format": "biochemical", "conditions": "30 minute pre-incubation; average of at least three experiments", "protocol": "as §1, §2"}, "Recombinant human LOXL4": {"target": "T3, Recombinant human LOXL4 (Homo sapiens, UniProt Q96JB6)", "T3 construct": "obtained from Dr. Fernando Rodríguez Pascual, university of Madrid, Spain (academic provider, not a vendor)", "T3 sequence (Q96JB6 25-756)": "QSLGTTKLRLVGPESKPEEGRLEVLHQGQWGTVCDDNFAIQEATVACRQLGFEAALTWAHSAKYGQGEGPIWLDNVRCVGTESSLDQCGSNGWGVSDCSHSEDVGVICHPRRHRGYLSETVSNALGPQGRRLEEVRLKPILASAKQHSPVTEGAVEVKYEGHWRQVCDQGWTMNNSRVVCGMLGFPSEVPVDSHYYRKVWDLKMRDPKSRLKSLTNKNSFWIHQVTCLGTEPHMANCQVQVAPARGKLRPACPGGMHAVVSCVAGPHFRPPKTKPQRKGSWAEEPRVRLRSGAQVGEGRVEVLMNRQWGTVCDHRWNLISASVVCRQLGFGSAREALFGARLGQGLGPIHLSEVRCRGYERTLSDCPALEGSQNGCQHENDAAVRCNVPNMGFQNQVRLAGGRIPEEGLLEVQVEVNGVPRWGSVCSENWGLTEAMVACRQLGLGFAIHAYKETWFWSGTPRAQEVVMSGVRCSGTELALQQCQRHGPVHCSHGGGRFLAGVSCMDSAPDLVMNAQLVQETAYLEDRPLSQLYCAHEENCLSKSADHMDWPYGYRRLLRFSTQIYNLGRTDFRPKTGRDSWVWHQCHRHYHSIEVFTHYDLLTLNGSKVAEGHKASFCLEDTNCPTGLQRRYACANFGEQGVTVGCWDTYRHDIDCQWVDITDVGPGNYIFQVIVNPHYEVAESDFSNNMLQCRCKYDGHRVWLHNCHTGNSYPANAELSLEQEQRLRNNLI", "experiment": "Amplex-Red fluorometric enzymatic activity assay, recombinant human LOXL4", "format": "biochemical", "conditions": "30 minute pre-incubation; average of at least three experiments", "protocol": "as §1, §2"}, "MAO-B": {"target": "MAO-B (Homo sapiens, UniProt P27338)", "experiment": "MAO-B enzymatic activity assay", "format": "biochemical", "protocol": "as §1\nRecombinant human semicarbazide sensitive amine oxidase (SSAO/VAP1), diamine oxidase (DAO) and monoamine oxidases A and B (MAO-A and MAO-B) assays were performed as previously described."}, "Adenosine A1": {"target": "Adenosine A1 (Homo sapiens, UniProt P30542)", "experiment": "Eurofins Hit Profiling Screen", "format": "binding", "conditions": "10 μmol/L"}, "Adenosine A2A": {"target": "Adenosine A2A (Homo sapiens, UniProt P29274)", "experiment": "Eurofins Hit Profiling Screen", "format": "binding", "conditions": "10 μmol/L"}, "Adrenergic α1A": {"target": "Adrenergic α1A (Rattus norvegicus, UniProt P43140)", "experiment": "Eurofins Hit Profiling Screen", "format": "binding", "conditions": "10 μmol/L"}, "Adrenergic α2A": {"target": "Adrenergic α2A (Homo sapiens, UniProt P08913)", "experiment": "Eurofins Hit Profiling Screen", "format": "binding", "conditions": "10 μmol/L"}, "Dopamine D2S": {"target": "Dopamine D2S (Homo sapiens, UniProt P14416)", "experiment": "Eurofins Hit Profiling Screen", "format": "binding", "conditions": "10 μmol/L"}, "Muscarinic M2": {"target": "Muscarinic M2 (Homo sapiens, UniProt P08172)", "sequence (P08172 whole entry)": "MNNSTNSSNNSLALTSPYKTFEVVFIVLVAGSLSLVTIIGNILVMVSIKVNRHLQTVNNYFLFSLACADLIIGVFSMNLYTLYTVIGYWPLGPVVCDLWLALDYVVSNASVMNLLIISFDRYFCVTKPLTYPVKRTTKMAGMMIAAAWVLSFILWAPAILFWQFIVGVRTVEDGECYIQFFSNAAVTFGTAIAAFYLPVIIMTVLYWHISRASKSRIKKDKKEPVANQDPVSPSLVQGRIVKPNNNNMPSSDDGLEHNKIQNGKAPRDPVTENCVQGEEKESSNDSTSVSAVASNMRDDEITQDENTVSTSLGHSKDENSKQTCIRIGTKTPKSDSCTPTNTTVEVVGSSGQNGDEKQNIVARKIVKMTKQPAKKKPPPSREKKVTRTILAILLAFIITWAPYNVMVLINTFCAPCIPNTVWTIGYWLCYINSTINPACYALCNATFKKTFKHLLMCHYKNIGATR", "experiment": "Eurofins Hit Profiling Screen", "format": "binding", "conditions": "10 μmol/L"}, "Nicotinic Acetylcholine": {"system": "Nicotinic Acetylcholine", "experiment": "Eurofins Hit Profiling Screen", "format": "binding", "conditions": "10 μmol/L"}, "Opiate μ (OP3, MOP)": {"target": "Opiate μ (OP3, MOP) (Homo sapiens, UniProt P35372)", "experiment": "Eurofins Hit Profiling Screen", "format": "binding", "conditions": "10 μmol/L"}, "Potassium Channel [KATP]": {"target": "Potassium Channel [KATP] (Cricetus cricetus, UniProt Q09427)", "sequence (Q09427 whole entry)": "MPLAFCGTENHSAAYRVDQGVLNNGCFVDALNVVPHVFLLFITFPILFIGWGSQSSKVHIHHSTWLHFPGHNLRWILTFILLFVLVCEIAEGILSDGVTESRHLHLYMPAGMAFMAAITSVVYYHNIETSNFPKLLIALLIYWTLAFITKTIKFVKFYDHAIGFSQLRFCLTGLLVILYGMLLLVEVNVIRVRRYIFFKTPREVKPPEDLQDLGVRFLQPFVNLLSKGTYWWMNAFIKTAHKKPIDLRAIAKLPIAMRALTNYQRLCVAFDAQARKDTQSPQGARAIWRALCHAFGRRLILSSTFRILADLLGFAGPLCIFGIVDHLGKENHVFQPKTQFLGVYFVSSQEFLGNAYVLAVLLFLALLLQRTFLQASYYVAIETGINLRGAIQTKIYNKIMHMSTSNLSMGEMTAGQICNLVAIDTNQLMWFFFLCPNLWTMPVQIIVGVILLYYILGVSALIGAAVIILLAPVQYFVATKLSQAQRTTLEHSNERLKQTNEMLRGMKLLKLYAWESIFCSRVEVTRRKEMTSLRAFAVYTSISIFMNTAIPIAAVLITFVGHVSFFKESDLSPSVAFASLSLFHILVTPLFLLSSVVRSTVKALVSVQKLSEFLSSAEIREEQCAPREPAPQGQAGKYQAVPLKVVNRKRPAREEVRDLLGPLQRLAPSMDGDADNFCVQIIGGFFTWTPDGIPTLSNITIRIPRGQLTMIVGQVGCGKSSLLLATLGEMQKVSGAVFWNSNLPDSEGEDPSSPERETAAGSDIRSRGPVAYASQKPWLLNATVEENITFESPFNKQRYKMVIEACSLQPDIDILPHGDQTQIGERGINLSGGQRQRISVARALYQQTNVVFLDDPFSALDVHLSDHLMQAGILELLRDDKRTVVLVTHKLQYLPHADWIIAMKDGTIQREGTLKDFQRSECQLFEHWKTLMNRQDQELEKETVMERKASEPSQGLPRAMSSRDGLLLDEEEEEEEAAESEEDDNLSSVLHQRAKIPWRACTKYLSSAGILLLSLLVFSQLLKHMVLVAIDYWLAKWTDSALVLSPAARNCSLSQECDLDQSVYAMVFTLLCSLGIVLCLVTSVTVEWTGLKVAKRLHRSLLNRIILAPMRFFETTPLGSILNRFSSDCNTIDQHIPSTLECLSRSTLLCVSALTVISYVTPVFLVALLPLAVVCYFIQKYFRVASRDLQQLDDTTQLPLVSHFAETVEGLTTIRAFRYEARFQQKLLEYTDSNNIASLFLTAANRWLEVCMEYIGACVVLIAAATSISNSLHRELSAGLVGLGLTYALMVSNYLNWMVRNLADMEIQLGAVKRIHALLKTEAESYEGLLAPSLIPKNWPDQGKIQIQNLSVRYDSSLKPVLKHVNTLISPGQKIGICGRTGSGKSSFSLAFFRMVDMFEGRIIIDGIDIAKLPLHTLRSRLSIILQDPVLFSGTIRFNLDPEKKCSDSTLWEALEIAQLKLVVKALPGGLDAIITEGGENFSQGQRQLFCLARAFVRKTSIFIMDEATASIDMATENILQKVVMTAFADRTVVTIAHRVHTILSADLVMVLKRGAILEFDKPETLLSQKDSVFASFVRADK", "experiment": "Eurofins Hit Profiling Screen", "format": "binding", "conditions": "10 μmol/L", "protocol": "PXS‐5153A was tested at Eurofins Cerep Panlabs Taiwan, Ltd in the “Hit Profiling Screen”, which tested 30 different targets.\nEurofins Hit Profiling Screen, was performed to evaluate the off -target profile of PXS-5153A. Biochemical assay results are presented as the percent inhibition of specific binding or activity."}, "Prostanoid EP4": {"target": "Prostanoid EP4 (Homo sapiens, UniProt P35408)", "sequence (P35408 whole entry)": "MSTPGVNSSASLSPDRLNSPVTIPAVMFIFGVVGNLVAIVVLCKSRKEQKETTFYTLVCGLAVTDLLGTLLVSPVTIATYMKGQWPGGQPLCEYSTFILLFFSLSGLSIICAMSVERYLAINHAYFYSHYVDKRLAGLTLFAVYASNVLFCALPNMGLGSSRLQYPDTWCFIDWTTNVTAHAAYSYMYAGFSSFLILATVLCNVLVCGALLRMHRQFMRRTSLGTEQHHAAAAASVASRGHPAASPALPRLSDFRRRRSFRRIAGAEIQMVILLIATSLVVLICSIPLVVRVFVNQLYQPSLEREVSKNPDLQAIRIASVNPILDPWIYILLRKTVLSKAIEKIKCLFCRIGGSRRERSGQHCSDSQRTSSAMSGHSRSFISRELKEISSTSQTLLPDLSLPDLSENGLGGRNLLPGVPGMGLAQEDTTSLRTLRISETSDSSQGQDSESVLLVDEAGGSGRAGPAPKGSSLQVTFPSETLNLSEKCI", "experiment": "Eurofins Hit Profiling Screen", "format": "binding", "conditions": "10 μmol/L"}, "[1]": {"experiment": "Pharmacokinetic study in rats", "format": "in vivo, Wistar rats", "conditions": "rat", "protocol": "(§3) Studies were performed by Pharmalegacy (Shanghai, China), GVK (Hyderabad, India) and Sundia, (Shanghai, China), with local ethics approval. Wistar rats were administered PXS‐5153A orally at 10 mg/kg or intravenously at 5 mg/kg, while C57/BL6 mice received PXS‐5153A orally or intravenously at 5 mg/kg. Plasma was analysed for PXS‐5153A by high‐performance liquid chromatography‐mass spectrometry/mass spectrometry (LCMS/MS)."}, "[2]": {"experiment": "Pharmacokinetic study in mice", "format": "in vivo, C57/BL6 mice", "conditions": "mouse", "protocol": "as §3"}},
  "data": [
    {"smiles": "Cc1c(-c2cccc(S(=O)(=O)N(C)C)c2)c2ncccc2n1C/C(F)=C/CN.Cl.Cl", "note": "[PXS-5153A]", "values": [
      {"measurement": "IC50", "setting": "Recombinant mouse LOXL2", "value": 21, "unit": "nM"},
      {"measurement": "pIC50 ± SD", "setting": "Recombinant mouse LOXL2", "value": "7.7 ± 0.2"},
      {"measurement": "IC50", "setting": "Native human LOXL2", "value": 38, "unit": "nM"},
      {"measurement": "pIC50 ± SD", "setting": "Native human LOXL2", "value": "7.4 ± 0.12"},
      {"measurement": "IC50", "setting": "Recombinant human LOXL4", "value": 104, "unit": "nM"},
      {"measurement": "pIC50 ± SD", "setting": "Recombinant human LOXL4", "value": "7 ± 0.1"},
      {"measurement": "IC50", "setting": "MAO-B", "value": "> 30000", "unit": "nM"},
      {"measurement": "% inhibition", "setting": "Adenosine A1", "value": 9, "unit": "%"},
      {"measurement": "% inhibition", "setting": "Adenosine A2A", "value": 0, "unit": "%"},
      {"measurement": "% inhibition", "setting": "Adrenergic α1A", "value": 20, "unit": "%"},
      {"measurement": "% inhibition", "setting": "Adrenergic α2A", "value": 97, "unit": "%"},
      {"measurement": "% inhibition", "setting": "Dopamine D2S", "value": 10, "unit": "%"},
      {"measurement": "% inhibition", "setting": "Muscarinic M2", "value": 58, "unit": "%"},
      {"measurement": "% inhibition", "setting": "Nicotinic Acetylcholine", "value": 16, "unit": "%"},
      {"measurement": "% inhibition", "setting": "Opiate μ (OP3, MOP)", "value": 11, "unit": "%"},
      {"measurement": "% inhibition", "setting": "Potassium Channel [KATP]", "value": 8, "unit": "%"},
      {"measurement": "% inhibition", "setting": "Prostanoid EP4", "value": 11, "unit": "%"},
      {"measurement": "Apparent half-life, t1/2", "setting": "[1]; intravenous 5 mg/kg", "value": 78, "unit": "min"},
      {"measurement": "Clearance CL", "setting": "[1]; intravenous 5 mg/kg", "value": 180, "unit": "mL/min/kg"},
      {"measurement": "Time of maximal concentration Tmax", "setting": "[1]; intravenous 5 mg/kg", "value": 1.8, "unit": "min"},
      {"measurement": "Apparent concentration at curve maximum Cmax", "setting": "[1]; oral 10 mg/kg", "value": 33, "unit": "ng/mL"},
      {"measurement": "Clearance CL", "setting": "[1]; oral 10 mg/kg", "value": 2029, "unit": "mL/min/kg"},
      {"measurement": "Time of maximal concentration Tmax", "setting": "[1]; oral 10 mg/kg", "value": 37.5, "unit": "min"},
      {"measurement": "Bioavailability", "setting": "[1]; oral 10 mg/kg (i.v. 5 mg/kg)", "value": 10, "unit": "%"},
      {"measurement": "Apparent half-life, t1/2", "setting": "[2]; intravenous 5 mg/kg", "value": 96, "unit": "min"},
      {"measurement": "Clearance CL", "setting": "[2]; intravenous 5 mg/kg", "value": 673, "unit": "mL/min/kg"},
      {"measurement": "Time of maximal concentration Tmax", "setting": "[2]; intravenous 5 mg/kg", "value": 4.8, "unit": "min"},
      {"measurement": "Apparent concentration at curve maximum Cmax", "setting": "[2]; oral 5 mg/kg", "value": 113, "unit": "ng/mL"},
      {"measurement": "Clearance CL", "setting": "[2]; oral 5 mg/kg", "value": 593, "unit": "mL/min/kg"},
      {"measurement": "Time of maximal concentration Tmax", "setting": "[2]; oral 5 mg/kg", "value": 60, "unit": "min"},
      {"measurement": "Bioavailability", "setting": "[2]; oral 5 mg/kg (i.v. 5 mg/kg)", "value": 40, "unit": "%"}
    ]}
  ]
}
